Measured values from patent US10017767B2, “Targets in multiple myeloma and other disorders” (FONDAZIONE CENTRO SAN RAFFAELE, priority 2012, dated 2018).

Assays:
MM.1S MM cells = experiment: MM.1S xenograft mouse model with inducible STK4 knockdown; assay type: in vivo, Fox Chase SCID mice; conditions: subcutaneous, 6 weeks; scrambled shRNA tumors 1965 mm^3
Procedure: A genetic approach conditionally knocking down STK4 in MM.1S cells was performed. In this study, MM.1S MM cells were infected with either inducible scrambled shRNAs, or inducible pLKO.1-TET shRNA #4 and pTRIPZ 63 directed against STK4 and then injected subcutaneously into three sites (left and right flank and interscapular region) in a group of 12 Fox Chase SCID mice.

YAP1 = YAP1 knockdown by lentiviral shRNA; assay type: cell-based
Procedure: Lentiviral short hairpin RNAs (shRNA) were used to knockdown YAP1 and STK4 expression in MM cells. Scrambled control pLKO.1 shRNA vectors and specific YAP1 and STK4 shRNA constructs were kindly provided by Dr. William Hahn (Dana-Farber Cancer Institute).
The efficacy of each shRNA in silencing gene expression was tested in HCT-116 and HeLa cell lines using Mirus Bio Trans-IT LT1 transfection reagent. To obtain stable silenced clones with YAP1/STK4 shRNA or pLKO.1 control plasmid, the following protocol was used. 293T cells were plated (300,000 cells on 6-cm plates) in DMEM/10% FBS/0.1% P/S. After 24 hours when cells were 60-70% confluent, 1000 ng of vector of interest together with 100 ng p-VSV-G and 900 ng delta 8.94 (both packaging vectors purchased from Addgene) were co-transfected with MIRUS BIO TransIT-LT1 diluted in OPTI-MEM (GIBCO). After 12 hours, 293T media was changed with DMEM/[…] to promote viral production. 24 and 48 hours post transfection, supernatant containing lentiviral particles was harvested, filtered with 0.45 μM diameter filter, and used to infect 2.5×10^6 MM cells. […] After the second cycle of infection, cells were put under selection with a suitable concentration of puromycin. mRNA and protein expression were evaluated 48 and 72 hrs after selection. […]

ABL1 = ABL1 cytoplasmic/nuclear localization by subcellular fractionation and Western blot in MM cell lines; assay type: cell-based; conditions: 2-10 μM; 1, 2, 6 and 24 hs; MM.1S, H929, UTMC-2, JJN-3, KMS-20
Procedure: (§1) MM cells were harvested and lysed using lysis buffer: 50 mMTris-HCl (pH 7.4), 150 mM NaCl, 1% NP-40, 5 mM EDTA, 5 mM NaF, 2 mM Na3VO4, 1 mM PMSF, 5 μg/mL leupeptine, and 5 μg/mL aprotinin. Nuclear extracts were prepared using Nuclear Extraction Kit (Panomics). Cell lysates were subjected to sodium dodecyl sulfate-polyacrylamide gel electrophoresis SDS-PAGE, transferred to nitrocellulose membranes, and immunoblotted with different antibodies: ATM, phospho-ATM (Ser1981), ATR, phospho-ATR (Ser428), CHK2, phospho-CHK2 (Thr68), CHK1, phospho-CHK1 (Ser296), p21, p53, phospho-p53 (ser127), STK4, LATS1, phospho-LATS1 (Ser909), phospho-ABL1 (Thr735), cleaved caspase 3, cleaved PARP, histone H3, SAPK/JNK, phospho-SAPK/JNK (Thr183/Tyr185), GM130, GAPDH, and α-tubulin (Cell Signaling); STK4, Nuclear Matrix Protein p84 (Abeam), p73 (BD), phospho-H2A.X (Ser139) (Millipore); as well as ABL1, BAX, Puma, Noxa, actin and nucleolin (Santa Cruz Biotechnology).

ATM = experiment: CHK2 (Thr68) phosphorylation immunoblot in MM cells; assay type: cell-based
U266 MM cell line [1] = experiment: Apoptosis by Annexin V-FITC/PI staining, U266; assay type: cell-based
Procedure: (§2) In particular, cells were washed twice with room-temperature PBS, resuspended in 100 μL of Annexin binding buffer, and stained with specific antibodies for 20 minutes.

MM.1S cells [2] = experiment: Apoptosis by Annexin V-FITC/PI staining, MM.1S; assay type: cell-based, human
Procedure: as §2

[3] = MTT viability assay, U266; assay type: cell-based; conditions: human, U266 multiple myeloma cells
Procedure: (§3) Viability of MM cells was evaluated by 3-[4,5-dimethylthiazol-2-yl]-2,5-diphenyltetrazolium bromide (MTT) colorimetric survival assay. MM cells (20,000-50,000) were plated in 100 μL medium. At the various time points (24-96 hours), 10 μL 5 mg/mL MTT were added to plated cells. After 4 hour incubation at 37° C., medium was discarded and 100 μL MTT stop solution (Isopropanonol with […] Hcl) used to dissolve MTT metabolic products. Absorbance was read at 570 nm and background was subtracted at 630 nm, using spectrophotometer SPECTRAMAX M2 machine and Softmax Pro v5 software. Cellular growth was estimated by cell counting in triplicates, excluding dead cells stained by trypan blue.

U266 cell line = experiment: MTT viability assay, U266; assay type: cell-based; conditions: 48 h
Procedure: as §3

[4] = MTT viability assay, MM.1S; assay type: cell-based, human; conditions: human, MM.1S multiple myeloma cells; MM.1S; doxorubicin 40 nM, 48 h; read-out: cell viability by MTT assay
Procedure: as §3

MTT assay, UTMC-2 = assay type: cell-based, human; conditions: human, UTMC-2 multiple myeloma cells; UTMC-2; doxorubicin 40 nM, 48 h; read-out: cell viability by MTT assay
Procedure: as §3

UTMC-2 cells [5] = experiment: MTT assay, UTMC-2; assay type: cell-based, human; conditions: doxorubicin 40 nM, 48 hours
Procedure: as §3

U266 MM cell line [6] = experiment: DNA damage markers and ABL1 localization in U266; assay type: cell-based; conditions: doxorubicin 40 nM
Procedure: MM cells were harvested and lysed using lysis buffer: 50 mMTris-HCl (pH 7.4), 150 mM NaCl, 1% NP-40, 5 mM EDTA, 5 mM NaF, 2 mM Na3VO4, 1 mM PMSF, 5 μg/mL leupeptine, and 5 μg/mL aprotinin. Nuclear extracts were prepared using Nuclear Extraction Kit (Panomics). […]
15,000 cells from MM cell lines, PBMCs or MM patient samples were cytospun for 5 minutes at 350-500 rpm, fixed in 4% paraformaldehyde (PFA) for 15 minutes, washed three times with PBS, and incubated with 0.1M glycin for 10 minutes to quench PFA autofluorescence. […] The slides were then mounted with ProLong Gold Antifade Reagent (Invitrogen), and images were taken using a Zeiss microscope (Carl Zeiss) equipped with Hamamatsu ORCA-ER camera (Hamamatsu Photonics) and analyzed with ImageJ software. […]

MM.1S and UTMC-2 = experiment: DNA damage markers and nuclear ABL1 in MM.1S and UTMC-2; assay type: cell-based, human; conditions: doxorubicin 40 nM
Procedure: as §1

YAP1, p73 = experiment: Western blot of YAP1, p73 and p73 targets in MM.1S and U266; assay type: cell-based
Procedure: as §1

UTMC-2 cells [7] = conditions: doxorubicin 40 nM, 48 h, before treatment 19.1%
[8] = system: KMS-20 cells transfected with pLENTI4-YAP1-EGFP; experiment: Apoptosis by Annexin V-PE/7AAD on GFP-positive YAP1-transfected cells; assay type: cell-based; conditions: YAP1 reintroduced; with imatinib 10 μM
Procedure: Cellular counting was performed in triplicate for each condition, with trypan blue exclusion. Right panel: Apoptosis by Annexin V-PE/7AAD, gating on GFP-positive cells. The percentage of viable cells (Annexin V-PE-/7AAD-cells) is shown at 48 hours.
p-ENTR-YAP1-EGFP plasmid was kindly provided by Dr. Marius Sudol and subcloned into pLENTI4-V5DEST vector using GATEWAY strategy. p-LENTI4-LACZ vector was used as control. KMS-18, KMS-20, MM.1S, RPMI-8226 and UTMC-2 cells (5,000,000) cells were transiently transfected with p-LENTI4 YAP1, using ‘Cell Line Nucleofector Kit V (Amaxa Biosystems, Köln, Germany), according to the manufacturer's instructions. AMAXA program: MM.1S→T-030; RPMI-8226→C-015; KMS-18, KMS-20 and UTMC-2→X-001. Specifically, 5×10^6 cells were resuspended in 100 μL V solution and 2500 ng of plasmid. Following transfection, MM cells were subjected to mRNA analysis, Western blotting, as well as apoptosis, cell counting, and MTT assays.
In particular, cells were washed twice with room-temperature PBS, resuspended in 100 μL of Annexin binding buffer, and stained with specific antibodies for 20 minutes. After adding other […] of Annexin binding buffer, samples were acquired using FACS Canto II machine from Becton Dickinson, BD, and analyzed with FCS EXPRESS 4 Flow Research Edition software.

MM.1S cells [9] = experiment: MTT viability assay, MM.1S; assay type: cell-based, human; conditions: MM.1S YAP1-transfected; imatinib 10 μM from day 0
Procedure: as §3

[10] = MTT viability assay, KMS-20; assay type: cell-based; conditions: human, KMS-20 multiple myeloma cells, LACZ-transfected; read-out: 48 hour viability (MTT, normalized to LACZ+DMSO)
Procedure: as §3

KMS-20 cells = experiment: MTT viability assay, KMS-20; assay type: cell-based; conditions: KMS-20 YAP1-transfected; imatinib 10 μM from day 0
Procedure: as §3

**Q.** With “pLKO.1-TET shRNA #4: inducible shRNA directed against STK4; clone #4 target sequence GCCAAGCGGAATACAGTGATA (the letters are possibly those of the target site)” as the molecule, how does the xenograft tumor growth (MM.1S MM cells) read?
**A.** no growth was evident

**Q.** Which “knockdown of YAP1” value (YAP1) does the source give for “shRNA #3: lentiviral shRNA targeting YAP1, CAGGTGATACTATCAACCAAA (the letters are possibly those of the target site)” here?
**A.** robust knockdown of YAP1

**Q.** With “shRNA #1: lentiviral shRNA targeting YAP1, CCCAGTTAAATGTTCACCAAT” as the molecule, how does the “knockdown of YAP1” value (YAP1) read?
**A.** robust knockdown of YAP1

**Q.** Which “cytoplasmic and nuclear ABL1 levels” value (ABL1) does the source give for `O=c1cc(-c2cccc3c2Sc2ccccc2S3)oc(N2CCOCC2)c1` [Ku55933] here?
**A.** increase in the levels of cytoplasmic ABL1, and a concomitant strong reduction of nuclear ABL1

**Q.** And the “CHK2 phosphorylation at Thr68” value (ATM)?
**A.** reduction in CHK2 phosphorylation at Thr68

**Q.** Which “apoptosis (Annexin V-PI)” value (U266 MM cell line [1]; 10 μM, untreated 10%) does the source give for `CCOc1cc2ncc(C#N)c(Nc3ccc(OCc4ccccn4)c(Cl)c3)c2cc1NC(=O)/C=C/CN(C)C` [HKI-272] here?
**A.** 43%

**Q.** What about the “apoptosis (Annexin V-FITC/PI)” value (MM.1S cells [2]; 10 μM, untreated 11%) of the same molecule?
**A.** 67%

**Q.** What about the viability at 24 h, 10 µM ([3]; 10 μM, 24 h, read-out: 24 hour viability (MTT, normalized to DMSO)) of the same molecule?
**A.** 98.2%

**Q.** What about the viability at 48 h, 10 µM ([3]; 10 μM, 48 h, read-out: 48 hour viability (MTT, normalized to DMSO)) of the same molecule?
**A.** 87.8%

**Q.** What about the viability at 72 h, 10 µM ([3]; 10 μM, 72 h, read-out: 72 hour viability (MTT, normalized to DMSO)) of the same molecule?
**A.** 56.9%

**Q.** And the viability at 96 h, 10 µM ([3]; 10 μM, 96 h, read-out: 96 hour viability (MTT, normalized to DMSO))?
**A.** 17.9%

**Q.** Which results are given for `COc1cccc2c1C(=O)c1c(O)c3c(c(O)c1C2=O)C[C@@](O)(C(=O)CO)C[C@@H]3O[C@H]1C[C@H](N)[C@H](O)[C@H](C)O1` [doxorubicin]?
**A.** apoptotic cells (Annexin V and PI staining) (U266 MM cell line [1]; doxorubicin 40 nM, 48 h, before treatment 13.1%): 40.1%; apoptosis (Annexin V-FITC/PI) (MM.1S cells [2]; doxorubicin 40 nM, 48 h, before treatment 12.4%): 55.3%; viability at 48 h, 40 nM ([3]; doxorubicin 40 nM, 48 h, read-out: viable cells (MTT assay)): 50%; viable cells (MTT assay) (U266 cell line; doxorubicin 40 nM): 52.8%; viability at 48 h, 40 nM [4]: 33.3%; viability at 48 h, 40 nM (MTT assay, UTMC-2): 66.5%; percentage of apoptotic cells by MTT assay (UTMC-2 cells [5]; UTMC-2 control cells): 37.4%; percentage of apoptotic cells by MTT assay (UTMC-2 cells [5]; UTMC-2 stably YAP1-silenced): 15.8%; ABL1 localization (U266 MM cell line [6]): ABL1 moved to the nuclear compartment; γ-H2A.X foci, pATM and pJNK phosphorylation (U266 MM cell line [6]): induced multiple γ-H2A.X foci and strong pATM and pJNK phosphorylation; γ-H2AX, pATM, pJNK and nuclear ABL1 (MM.1S and UTMC-2): increase in γ-H2AX, pATM, and pJNK was evident, along with a major increase in nuclear ABL1; YAP1 and p73 protein levels (YAP1, p73; doxorubicin 40 nM): induced YAP1, as well as p73; apoptosis (Annexin V-FITC/PI) (UTMC-2 cells [7]): 57.8%

**Q.** For `Cc1ccc(NC(=O)c2ccc(CN3CCN(C)CC3)cc2)cc1Nc1nccc(-c2cccnc2)n1` [imatinib], which “apoptotic cells after reintroduction of YAP1” value [8] is on record?
**A.** 9.1%

**Q.** What about the viability at 10 µM (U266 cell line; Homo sapiens, U-266, 48 h, doxorubicin 40 nM with imatinib 10 μM, doxorubicin alone 52.8%) of the same molecule?
**A.** 78.5%

**Q.** What about the “48 hour viability (MTT, normalized to LACZ+DMSO)” value (MM.1S cells [9]) of the same molecule?
**A.** 86.1%±20.6

**Q.** And the viability at 48 h, 10 µM [10]?
**A.** 103%

**Q.** And the “48 hour viability (MTT, normalized to LACZ+DMSO)” value (KMS-20 cells)?
**A.** 96.7%+8.9

**Q.** And the “YAP1, p73 and p73-target expression triggered by DNA-damaging agents” value (YAP1, p73; doxorubicin 40 nM with imatinib 10 μM)?
**A.** stifled the increase in YAP1, p73 and p73-target expression
